Like-named read-outs stand apart in the source and are kept apart here.
Biological target: EBOV VP40 (6xHis-VP40) (Ebola virus - Mayinga, Zaire, 1976, UniProt Q05128)
Assay: biochemical
Format: binding

Chain of EBOV VP40 (6xHis-VP40) (Q05128 whole entry, looked up): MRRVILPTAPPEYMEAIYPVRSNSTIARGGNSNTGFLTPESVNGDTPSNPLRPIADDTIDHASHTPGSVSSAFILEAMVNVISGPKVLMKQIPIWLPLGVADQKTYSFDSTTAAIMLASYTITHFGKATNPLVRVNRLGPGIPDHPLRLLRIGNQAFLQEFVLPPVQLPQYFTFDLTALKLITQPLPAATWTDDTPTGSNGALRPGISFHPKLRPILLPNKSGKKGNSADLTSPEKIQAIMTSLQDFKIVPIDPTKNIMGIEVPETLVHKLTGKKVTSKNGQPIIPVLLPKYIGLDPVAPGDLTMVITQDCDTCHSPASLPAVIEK

Question: With `CCCCCCCC/C=C\CCCCCCCC(=O)OC[C@H](COP(=O)(O)OC[C@H](N)C(=O)O)OC(=O)CCCCCCC/C=C\CCCCCCCC` [DOPS] as the molecule, how does the Kd (read-out: Kd (apparent)) read?
Answer: Its Kd is 0.311 µM.

Question: Which Kd (read-out: Kd (apparent)) does the source give for `CCCCCCCCCCCCCCCC(=O)OCC(COP(=O)(O)OC[C@H](N)C(=O)O)OC(=O)CCCCCCCCCCCCCCC` (stereo partly drawn) [DPPS] here?
Answer: The Kd was 0.01 µM.

Question: How did the Kd turn out when `CCCCCCCC/C=C\CCCCCCCC(=O)O[C@H](COC(=O)CCCCCCCCCCCCCCC)COP(=O)(O)OC[C@H](N)C(=O)O` [POPS] was run?
Answer: Its Kd is 0.186 µM.
